Columns and labels:
[1] = test system: CHO cells; design: method as in PMID 7588651; settings: 1 mM TAU; cited from earlier work
[2] = test system: Drosophila melanogaster; test: Genotoxicity, wing spot test (SMART); settings: simple treatment; for Large Simple Spots (>2 Cells) m = 5 / Small Single Spots (1–2 Cells) m = 2 / Total Spots m = 2: No. of spots in parentheses
Protocol: The wing spot test was performed to evaluate genotoxicity assays following the standard procedure [14]. Briefly, trans-heterozygous larvae for mwh and flr^3 genes were obtained by crossing four day-old virgin flr^3 females with mwh males in a 2:1 ratio. Four days after fertilization, females were allowed to lay eggs in fresh yeast medium (25 g yeast and 4 mL sterile distilled water) for 8 h in order to obtain synchronized larvae. After 72 h, larvae were collected, washed with distilled water, and clustered in groups of 100 individuals. […] Adult flies were collected and stored in 70% ethanol until the wings were removed and mounted on slides using Faure’s solution. Mutant spots were assessed in both dorsal and ventral surfaces of the wings in a bright light microscope at 400× magnification. The frequencies of each type of mutant clone per wing (single, large or twin spot) were compared with the concurrent negative control [43]. All inconclusive and positive results (p > 0.05) were analysed with the nonparametric U-test of Mann, Whitney and Wilcoxon (α = β = 0.05).

[3] = test system: calf thymus DNA; design: method as in PMID 11787620; settings: 5–20 mM TAU; cited from earlier work
[4] = test system: Drosophila melanogaster; test: Antigenotoxicity, wing spot test, combined treatment with hydrogen peroxide; assay type: in vivo; design: key to Total Spots, statistical diagnosis (Kastenbaum-Bowman test): * (positive); Δ (negative); β (inconclusive) vs. respective positive control
Protocol: All inconclusive and positive results (p > 0.05) were analysed with the nonparametric U-test of Mann, Whitney and Wilcoxon (α = β = 0.05). Anter et al. described the antigenotoxicity method conducted in D. melanogaster. […] Single and twin spots per wing were also recorded and compared with the concurrent negative control as described before. Finally, the inhibition percentages (IP) for the combined treatments were calculated as described by Abraham: IP = [(genotoxin alone-combined treatment)/genotoxin alone] × 100.

[5] = test system: Drosophila; settings: cited from earlier work
[6] = test system: Drosophila melanogaster; test: Chronic treatments: lifespan and healthspan assays; assay type: in vivo; settings: for Healthspan (80th Percentile) / Mean Lifespan: chronic, mean ±SE
Protocol: Flies used in the lifespan assays show the same genetic background those used in the genotoxicity assays in order to compare both result. The treated adults consisted of the F1 progeny from mwh and flr^3 parental strains produced by a 24 h eggs-lying in yeast medium. The same compounds and concentrations as in the toxicity/genotoxicity experiments were assayed. Lifespan assays were carried out at 25 °C according to the procedure described by Fernandez-Bedmar et al.. Briefly, synchronized 72 ± 12-h-old trans-heterozygous larvae were washed in distilled water, collected and transferred in groups of 100 individuals into test vials containing 0.85 g Drosophila Instant Medium and 4 mL of the different concentrations of the compounds to be assayed. Emerged adults from pupae were collected under CO2 anaesthesia and placed in groups of 25 individuals of the same sex into sterile vials containing 0.21 g Drosophila Instant Medium and 1 mL of different concentrations of the compounds to be tested. Flies were chronically treated during all their life. The number of survivors was determined twice a week in three different replicates.

[7] = TAU 1 mM + 0.15 M H2O2, No. of spots in parentheses
[8] = TAU 32 mM + 0.15 M H2O2, No. of spots in parentheses
[9] = TAU 0.25 mM vs concurrent water control
[10] = TAU 1 mM vs concurrent water control
[11] = TAU 2 mM vs concurrent water control
[12] = TAU 8 mM vs concurrent water control
[13] = TAU 32 mM vs concurrent water control

NCCS(=O)(=O)O [TAU, 2-aminoethanesulfonic acid]
induction of chromosome aberrations and sister chromatid exchanges [1]: not able to induce neither chromosome aberrations nor sister chromatid exchanges
Twin Spots m = 5 ([2]; TAU 1 mM): 0 clones per wing
Large Simple Spots (>2 Cells) m = 5 ([2]; TAU 1 mM): 0.08 (3) clones per wing
Small Single Spots (1–2 Cells) m = 2 ([2]; TAU 1 mM): 0.027 (1) clones per wing
Total Spots m = 2 ([2]; TAU 1 mM): 0.108 (4) clones per wing
Twin Spots m = 5 ([2]; TAU 32 mM): 0 clones per wing
Large Simple Spots (>2 Cells) m = 5 ([2]; TAU 32 mM): 0.05 (2) clones per wing
Small Single Spots (1–2 Cells) m = 2 ([2]; TAU 32 mM): 0.15 (6) clones per wing
Total Spots m = 2 ([2]; TAU 32 mM): 0.2 (8) clones per wing
protection of DNA against oxidative damage [3]: DNA-protected concentrations against oxidative damage
IP (%) inhibition percentage ([4]; TAU 1 mM + 0.15 M H2O2): 70.6%
Large Simple Spots (>2 Cells) m = 5 ([4]; TAU 1 mM + 0.15 M H2O2): 0 clones per wing
Twin Spots m = 5 ([4]; TAU 1 mM + 0.15 M H2O2): 0 clones per wing
Small Single Spots (1–2 Cells) m = 2 [4, 7]: 0.125 (5) clones per wing
Total Spots m = 2 [4, 7]: 0.125 (5) clones per wing
Total Spots, statistical diagnosis (Kastenbaum-Bowman test) ([4]; TAU 1 mM + 0.15 M H2O2 vs positive control): *
IP (%) inhibition percentage ([4]; TAU 32 mM + 0.15 M H2O2): 38.1%
Twin Spots m = 5 ([4]; TAU 32 mM + 0.15 M H2O2): 0 clones per wing
Large Simple Spots (>2 Cells) m = 5 [4, 8]: 0.026 (1) clones per wing
Small Single Spots (1–2 Cells) m = 2 [4, 8]: 0.236 (9) clones per wing
Total Spots m = 2 [4, 8]: 0.263 (10) clones per wing
Total Spots, statistical diagnosis (Kastenbaum-Bowman test) ([4]; TAU 32 mM + 0.15 M H2O2 vs positive control): *
lifespan of Drosophila ([5]; 1.6% TAU): decrease the lifespan
adult lifespan of Drosophila ([5]; TAU 0.05 to 0.20 M): had no influence on adult lifespan
estimated mean values of survival ([5]; TAU 8–24 mM): increased the estimated mean values of survival
Healthspan Difference (%) [6, 9]: −7.3%
Mean Lifespan Difference (%) [6, 9]: 4.57%
Healthspan (80th Percentile) ([6]; TAU 0.25 mM): 34.98 ± 3.954 days
Mean Lifespan ([6]; TAU 0.25 mM): 67.94 ± 2.603 days
Healthspan Difference (%) [6, 10]: −20%
Mean Lifespan Difference (%) [6, 10]: 2.81%
Healthspan (80th Percentile) ([6]; TAU 1 mM): 30.22 ± 1.878 days
Mean Lifespan ([6]; TAU 1 mM): 66.81 ± 3.215 days
Healthspan Difference (%) [6, 11]: −6.4%
Mean Lifespan Difference (%) [6, 11]: −4.8%
Healthspan (80th Percentile) ([6]; TAU 2 mM): 35.357 ± 0.9 days
Mean Lifespan ([6]; TAU 2 mM): 61.83 ± 2.25 days
Healthspan Difference (%) [6, 12]: −2.6%
Mean Lifespan Difference (%) [6, 12]: 7.95%
Healthspan (80th Percentile) ([6]; TAU 8 mM): 36.8 ± 2.832 days
Mean Lifespan ([6]; TAU 8 mM): 70.142 ± 2.385 days
Healthspan Difference (%) [6, 13]: −3.2%
Mean Lifespan Difference (%) [6, 13]: 1.6%
Healthspan (80th Percentile) ([6]; TAU 32 mM): 36.57 ± 3.55 days
Mean Lifespan ([6]; TAU 32 mM): 66.04 ± 2.055 days
lifespan compared with concurrent control ([6]; all tested concentrations): did not significantly differ
